Results taken from US20170021056A1, “PEPTIDE AMPHIPHILE BIOMATERIALS FOR NERVE REPAIR” (Northwestern University, priority 2015, published 2017).
The star is where a group is joined. Palmitoyl = CCCCCCCCCCCCCCCC(=O)*

Experiments:
[1] = system: Schwann cells (cell line RT4-D6P2T); test: WST-1 proliferation assay of Schwann cells in PA or collagen gels; assay type: cell-based, rat; details: for Schwann cell proliferation compared to backbone-PA gel: by 7 days of culture; for Schwann cell proliferation (viability measurements) compared to backbone-PA gel: day 1 of culture
Experimental: (§1) Cells were purchased from ATCC (cell line RT4-D6P2T) and cultured in Dulbecco's Modified Eagle's Medium (DMEM) with 10% fetal bovine serum (FBS). Cells were cultured to confluence, treated with 0.25% trypsin, centrifuged, and resuspended in PBS for a final concentration of 3500 cells/ml for WST-1 proliferation assays and 10,000 cells/ml for immunocytochemistry (ICC).
In order to synthesize the backbone-PA (consisting of only palmitoyl-VVAAEENH2) (SEQ ID NO: 3), the molecule was dissolved in aqueous 150 mM NaCl, 3 mM KCl, and NaOH solution to obtain a final 1 wt % solution at a pH between 7.2 and 7.4. In order to fabricate mixtures containing epitope-bearing PAs IKVAV (SEQ ID NO: 2) and RGDS (SEQ ID NO: 1) (consisting of palmitoyl-VVAAEE-NH2(SEQ ID NO: 3) with appended peptides, either RGDS (Arg-Gly-Asp-Ser) (SEQ ID NO: 1) or IKVAV (Ile-Lys-Val-Ala-Val) (SEQ ID NO: 2)), the backbone-PA was dissolved in aqueous 150 mM NaCl, 3 mM KCl, and NaOH solution to obtain a 1.33 wt % solution at a pH between 7.2 and 7.4. The epitope-containing PA was then dissolved with the same solution to obtain a 1 wt % solution at a pH between 7.2 and 7.4. The 1.33 wt % PA solution was then mixed in a 3:1 ratio with the 1% bioactive epitope solution creating a final bioactive PA solution of 1 wt % PA and 0.25 wt % bioactive epitope. The three resulting solutions (backbone-PA, RGDS-PA (SEQ ID NO: 1), and IKVAV-PA (SEQ ID NO: 2)) were then heated to 80° C. for 30 min in a water bath and left in the bath for slowcooling to 37° C. overnight (refs. 10,11; herein incorporated by reference in their entireties).
(§2) Following completion of the slow cooling, each of the PA solutions was mixed with Schwann cell suspension in a 4:1 ratio. A final cell density of 3500 cells/ml was used for the WST-1 proliferation assays and 10,000 cells/ml for immunocytochemistry studies.
(§3) A […] volume of gelling solution consisting of 20 mM CaCl2, 150 mM NaCl, and 3 mM KCl was pipetted onto a glass slide to form a thin film. The PA-Schwann cell suspensions were then pipetted in […] aliquots onto the thin film, instantly forming a string-like gel, with cells encapsulated within. These cell-embedded gels were maintained free floating in DMEM with 10% FBS in culture plates and incubated at 37° C. Medium was changed every 72 h.
(§4) Volumetric ratios of 1 ml HEPES, 10 ml 10XPBS, 87 ml Collagen 10 mg/mL, and 2 ml Schwann cell PBS suspension were combined and mixed gently. Final cell density of 3500 cells/ml was used for the WST-1 proliferation assays and 10,000 cells/ml, for immunocytochemistry studies. The mixture was then pipetted into a culture well (either a 96-well plate or 2-welled microscopy slides), and after 1 h of curing and solidification at 37° C., medium was added gently to the wells and changed every 3 days.
To evaluate the viability of cells within the gels, WST-1 reagent (Roche Applied Science, Indianapolis, Ind., USA) was used for each PA-cell and collagen gelecell complex. WST-1 assay has been widely used to measure cell proliferation. Aligned PA-cell gels along with collagen-cell gels were fabricated through the aforementioned methods at a final cell density of 3500 cells/ml. Gels were then cultured in 96-well plates for various time periods (days 1, 7, 14, and 21). Following each time point, gels were incubated for 90 min in medium containing 10% WST-1 assay reagent. Following incubation, […] of the conditioned medium were then transferred to a 96-well reading plate, and absorption values were read in a spectrophotometer at 450 nm. Measurements were repeated in sets of four.

[2] = system: Schwann cells (cell line RT4-D6P2T); test: Immunocytochemistry of actin and vinculin (focal adhesion protein) of Schwann cells in gels; assay type: cell-based, rat; details: 48 h culture
Experimental: as §1, §2, §3, §4
PA-cell gels along with collagen-cell gels were fabricated through the aforementioned methods at a final cell density of 10,000 cells/ml. […] Specimens were then viewed with confocal microscopy (Confocal SP1 MP-Inverted, Leica Microsystems Inc., Buffalo Grove, Ill.) using oil magnification, and images were recorded.

Q: With “RGDS-PA: palmitoyl-VVAAEE-NH2 with appended RGDS (Arg-Gly-Asp-Ser), mixed with backbone-PA: 1 wt % PA and 0.25 wt % bioactive epitope” as the substance, how does the “Schwann cell proliferation compared to backbone-PA gel” value [1] read?
A: significantly higher

Q: And the “Schwann cell proliferation (viability measurements) compared to backbone-PA gel” value [1]?
A: proliferated more rapidly

Q: What about the “time over which Schwann cell proliferation was statistically increased vs. backbone-PA” value ([1]; p<0.05, ANOVA and Tukey-Kramer) of the same substance?
A: ≤ 21 days

Q: And the “Schwann cell proliferation, rank among all groups” value ([1]; through 21 days of culture)?
A: highest among all groups

Q: What about the “actin appearance, RGDS-PA compared with IKVAV-PA gels” value [2] of the same substance?
A: no significant difference

Q: Which “Schwann cell proliferation compared to backbone-PA gel” value [1] does the source give for “IKVAV-PA: palmitoyl-VVAAEE-NH2 with appended IKVAV (Ile-Lys-Val-Ala-Val), mixed with backbone-PA: 1 wt % PA and 0.25 wt % bioactive epitope” here?
A: significantly higher

Q: What about the “Schwann cell proliferation (viability measurements) compared to backbone-PA gel” value [1] of the same substance?
A: proliferated more rapidly

Q: What about the “day at which Schwann cell growth was maximal” value ([1]; no significant expansion or contraction at day 21) of the same substance?
A: 14 days

Q: And the “actin appearance, RGDS-PA compared with IKVAV-PA gels” value [2]?
A: no significant difference

Q: What does the source list for “palmitoyl-VVAAEENH2 (Palmitoyl-VVAAEE-NH2) [backbone-PA]”?
A: Schwann cell proliferation with time in gel ([1]; days 1, 7, 14, 21): increasing proliferation with time; spatial arrangement of cytoskeletal actin of Schwann cells (actin stain) [2]: marked linear arrangement
